# Experiments:
# [1] = tested on: human ovarian cancer cell line OVCAR-3 xenografts; assay: OVCAR-3 xenograft growth inhibition in nude mice; format: in vivo; settings: 80 mg/kg i.p. once daily
# Method: (§1) All the procedures related to animal handling, care, and the treatment in the study were performed following guidelines approved by an Institutional Animal Care and Use Committee (IACUC) of Crown Bioscience, Inc. (Santa Clara, Calif., USA, a contract research organization we hired) based on the guidance of the Association for Assessment and Accreditation of Laboratory Animal Care (AAALAC). Animals were checked for any effects of tumor growth and drug treatment on normal behavior such as mobility, food and water consumption, body weight gain/loss (gross body weights were measured twice weekly), eye/hair matting, and any other abnormal effect. Death and observed clinical signs were recorded on the basis of the number of animals within each group. Individual animals with a tumor volume exceeding 3,000 mm^3 or animals of a group with a mean tumor volume exceeding 2,000 mm^3 were euthanized. In addition, animals showing signs of severe distress and/or pain, dropping body weight more than 20% from that at the start of treatment, or losing the capability of accessing adequate food or water were humanely sacrificed.
# (§2) Each mouse was inoculated subcutaneously at the right flank with the LNCaP cells (1×10^7) in 0.1 ml of PBS for tumor development. When a mean tumor volume reached around 150 mm^3, the tumor-bearing mice were divided into homogeneous blocks based on their tumor volumes followed by a randomization of mice in each block into treatment groups (thus minimizing variations in tumor response to treatments due to the differential in initial mean tumor volumes). Each treatment group was consisted of 8 tumor-bearing mice. Vehicle (DMSO) or ITE in the vehicle at specified doses were administered to the mice by either i.p. (intraperitoneal) or p.o. (oral) injection once or twice daily for 28 continuous days as indicated.
# (§3) Tumor volume was measured twice weekly in two dimensions using a caliper and the volume was calculated with a formula of: V=0.5 a×b^2, where a and b are the long and short diameter (in mm) of a tumor, respectively. The tumor volume was then used for calculations of both TGI (Tumor Growth Inhibition) and TGD (Tumor Growth Delay). The TGI was determined by: TGI=ΔT/ΔC×100%, where ΔT was a difference between the mean tumor volume at a specified day of observation and that at the day treatment starts (day 1) for a drug treated group whereas ΔC was the same difference measured for the control group. The TGD was calculated as: TGD=T−C, where T was the time (in days) required for tumors in a drug treated group to reach a predetermined mean tumor volume and C the time (in days) in the control group to reach the same volume. A tumor weight was derived by equating 1,000 mm^3 in volume to 1,000 mg in weight. A net body weight was then derived by subtracting a tumor weight from a corresponding gross body weight with the tumor.
# (§4) Summary statistics, including mean and the standard error of the mean (SEM), are provided for the tumor volume of each group at each time point. Statistical analysis of difference in tumor volume among groups was conducted on a data set either at the best therapeutic time point or at the final dosing day as indicated. The tumor volume data were log-transformed and evaluated using a one-way ANOVA followed by Tukey's test when significance was observed. All data were analyzed using SPSS 16.0 and p<0.05 was considered to be statistically significant.
# The culture and inoculation of human prostate cancer cell line LNCaP were as described in Example 1. The manipulation for human liver cancer cell line HepG2 (ATCC) was similar as that for LNCaP except that DMEM (instead of RPMI-1640) medium was used, the L-glutamine was not used, and 2×10^6 cells were used for inoculation into female nude mice. The handling of human ovarian cancer cell line OVCAR-3 (ATCC) was the same as that of LNCaP except that the DMEM medium was used and 5×10^6 cells were used for inoculation into female nude mice. […]
# [2] = tested on: human prostate cancer cell line LNCaP xenografts; assay: LNCaP xenograft growth inhibition in nude mice; format: in vivo; settings: for TGI (Tumor Growth Inhibition): TGI=ΔT/ΔC×100%
# Method: as §1
# The human prostate cancer cell line LNCaP (ATCC, American Type Culture Collection, Manassas, Va., USA) were maintained in vitro as monolayer culture in RPMI-1640 medium supplemented with 10% fetal bovine serum (FBS), 100 U/ml penicillin, 100 μg/ml streptomycin, and 2 mM L-glutamine at 37° C. in an atmosphere of 5% CO2 in air. The tumor cells were routinely subcultured twice a week. The cells growing in an exponential phase were harvested and counted for tumor inoculation.
# as §2, §3, §4
smiles,measurement,setting,value
"COC(=O)c1csc(C(=O)c2c[nH]c3ccccc23)n1 [ITE, 2-(1′H-indole-3′-carbonyl)-thiazole-4-carboxylic acid methyl ester]",net body weight loss,[1],no obvious net body weight loss
same,TGD (Tumor Growth Delay),[1]; at a tumor volume of 800 mm^3,10 days
same,TGI (Tumor Growth Inhibition),"[1]; day 33, TGI=ΔT/ΔC×100%",47%
same,TGD (Tumor Growth Delay),"[2]; 20 mg/kg b.w. i.p. once daily, at a tumor volume of 1,000 mm^3",8 days
same,TGI (Tumor Growth Inhibition),"[2]; 20 mg/kg b.w. i.p. once daily, day 28",64%
same,toxic response judged from body weight changes of tumor-bearing mice,[2]; 0.1-40 mg/kg b.w. i.p. every 12 hr for 28 days,did not seem to provoke significant toxic response
same,TGI (Tumor Growth Inhibition),"[2]; ITE 0.1 mg/kg b.w. i.p. every 12 hr for 28 days, DMSO, day 28",74%
same,TGI (Tumor Growth Inhibition),"[2]; ITE 1 mg/kg b.w. i.p. every 12 hr for 28 days, day 28",52%
same,TGD (Tumor Growth Delay),"[2]; ITE 1 mg/kg b.w. i.p. every 12 hr, at a tumor size of 600 mm^3",3 days
same,TGI (Tumor Growth Inhibition),"[2]; ITE 10 mg/kg b.w. i.p. every 12 hr for 28 days, day 28",31%
same,TGD (Tumor Growth Delay),"[2]; ITE 10 mg/kg b.w. i.p. every 12 hr, at a tumor size of 600 mm^3",10 days
same,TGI (Tumor Growth Inhibition),"[2]; ITE 20 mg/kg b.w. i.p. every 12 hr for 28 days, day 28",26%
same,TGD (Tumor Growth Delay),"[2]; ITE 20 mg/kg b.w. i.p. every 12 hr, at a tumor size of 600 mm^3",12 days
same,TGI (Tumor Growth Inhibition),"[2]; ITE 40 mg/kg b.w. i.p. every 12 hr for 28 days, day 28",22%
same,TGD (Tumor Growth Delay),"[2]; ITE 40 mg/kg b.w. i.p. every 12 hr, at a tumor size of 600 mm^3",16 days
same,TGI (Tumor Growth Inhibition),"[2]; ITE 80 mg/kg p.o. daily, day 24",46%
same,TGI (Tumor Growth Inhibition),"[2]; ITE 80 mg/kg twice daily i.p., day 28",12%
same,TGI (Tumor Growth Inhibition),"[2]; ITE 80 mg/kg twice daily i.p., the last day",16%
